In the supplement of paper PMC10307832:

Experiments:
Experiment in all cases: relative viability (nuclei count vs DMSO), 5 days (fraction); higher = more cells survive
[1] = compound: C1=CC(=CC=C1NC(=S)NNC2=C(C=C(C=C2[N+](=O)[O-])C(F)(F)F)[N+](=O)[O-])F [Kobe2602] + Nc1nc2[nH]cc(CCc3ccc(C(=O)N[C@@H](CCC(=O)O)C(=O)O)cc3)c2c(=O)[nH]1 [Pemetrexed] (partner 0.2 µM)
Outline: (§1)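 Lung cancer cell lines were seeded in 1536-well plates and dosed by pin tool the next day, with either a single drug or a fixed anchor-drug dose combined with five library-drug doses (not always all listed) spaced in √10 steps. Five days later, one step fixed the cells and stained their nuclei (final 0.05% Triton X-100, 1% formaldehyde, 1 ug/ml Hoechst), and nuclei were counted on 4× images. Relative viability is the nuclei count in treated wells divided by the count in vehicle wells, and each value is the median of duplicate plates.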

[2] = compound: COc1cc2nccc(Oc3ccc(NC(=O)C4(C(=O)Nc5ccc(F)cc5)CC4)cc3)c2cc1OC [Cabozantinib] + NC(=O)Nc1cc(-c2cccc(F)c2)sc1C(=O)N[C@H]1CCCNC1 [AZD7762] (partner 0.2 µM)
Outline: as §1

[3] = compound: O[C@@H](COc1cccc2ncccc12)CN1CCN([C@@H]2c3ccccc3[C@@H]3[C@H](c4ccccc42)C3(F)F)CC1 [Zosuquidar] + COc1cc2c(Oc3ccc(NC(=O)C4(C(=O)Nc5ccc(F)cc5)CC4)cc3F)ccnc2cc1OCCCN1CCOCC1 [Foretinib] (partner 0.25 µM)
Outline: as §1

[4] = compound: O[C@@H](COc1cccc2ncccc12)CN1CCN([C@@H]2c3ccccc3[C@@H]3[C@H](c4ccccc42)C3(F)F)CC1 [Zosuquidar] + Cc1nc(Nc2ncc(C(=O)Nc3c(C)cccc3Cl)s2)cc(N2CCN(CCO)CC2)n1 [Dasatinib] (partner 0.075 µM)
Outline: as §1

Cell Line	relative viability ([1]; first compound 0.2 µM)	relative viability ([1]; first compound 0.6325 µM)	relative viability ([1]; first compound 2 µM)	relative viability ([1]; first compound 6.325 µM)	relative viability ([1]; first compound 20 µM)	relative viability ([2]; first compound 0.02 µM)	relative viability ([2]; first compound 0.06325 µM)	relative viability ([2]; first compound 0.6325 µM)	relative viability ([2]; first compound 2 µM)	relative viability ([3]; first compound 0.01 µM)	relative viability ([3]; first compound 0.03162 µM)	relative viability ([3]; first compound 0.1 µM)	relative viability ([3]; first compound 0.3162 µM)	relative viability ([3]; first compound 1 µM)	relative viability ([4]; first compound 0.01 µM)	relative viability ([4]; first compound 0.03162 µM)	relative viability ([4]; first compound 0.1 µM)	relative viability ([4]; first compound 0.3162 µM)	relative viability ([4]; first compound 1 µM)	relative viability ([2]; first compound 0.2 µM)
PC-3 [JPC-3]	1.26	1.33	1.11	1.11	1.06	0.633	0.888	0.859	0.798	1.11	1.02	0.984	1.09	1.1	1	1.02	0.941	0.927	0.964	
HARA	0.228	0.296	0.255	0.239	0.313	0.291	0.332	0.339	0.301	0.857		0.883	0.866	0.999	0.252		0.26	0.257	0.27	
NCI-H2347	0.432	0.467	0.427	0.443	0.431	0.748	0.889	0.378	0.444	1.01	1.06	0.556	0.978	0.869	0.321	0.384	0.253	0.309	0.351	0.668
LOU-NH91	0.351	0.361	0.379	0.391	0.392	0.637	0.862	0.752	0.768	0.882	0.857		0.936	0.91	0.515	0.377		0.601	0.552	0.703
LC-2-ad	0.292	0.296	0.285	0.275	0.264	0.766	0.98	0.902	0.866	0.975	0.933	0.862	1.03	0.931	0.509	0.74	0.531	0.589	0.613	0.79
LCLC-97TM1	0.204	0.15		0.14	0.161		0.305	0.195	0.304	0.922	0.929	0.9	1.01	0.974	0.776	0.756	0.73	0.761	0.898	0.285
EKVX	0.416	0.394	0.404	0.41	0.408	0.693	0.856	0.703	0.763	0.692	0.734	0.589	0.954	0.748	0.694	0.38	0.558	0.657	0.488	0.558
NCI-H441	0.285	0.217	0.244	0.279	0.288	1.64	1.43	1.44	0.826	1.06	1.01	0.866	1.03	1.2	0.521	0.606	0.574	0.683	0.718	1.1
HCC-827	0.293	0.241	0.281	0.261	0.261	0.189	0.268	0.225	0.189	1.05	1.03	0.9	1.01	1.02	0.293	0.348	0.237	0.272	0.351	
NCI-H838	0.257	0.251	0.261	0.246	0.232	1	0.74	0.93	0.866	1.07	1	0.995	1.11	1.07	0.321	0.26		0.336	0.35	0.908
CAL-12T	1.2	1.14	1.24	1.1	1.14	0.714	0.682	0.651	0.567	1.12	1.18	0.978	1.18	1.02	0.355	0.397	0.38	0.606	0.443	0.641
NCI-H2342	0.734	0.754	0.734	0.763	0.844	0.401	0.69	0.535	0.415	1.1	1.18	0.878	1	1.06	0.275	0.312	0.327	0.313	0.299	0.624
IA-LM										1.09	1.23	1.26	1.34	1.17						
NCI-H727						0.509	0.796	0.539	0.651	0.774	0.79	0.774	0.855	0.908	0.373	0.387	0.424	0.429	0.355	0.661
SW 1573	0.786	0.96	0.82	0.84	0.598					0.976	0.888	1.07	1.05	0.879	0.603	0.437	0.667	0.456	0.595	
NCI-H661	0.893	0.947	0.913	0.932	0.924					1.05	0.895	0.885	1.06	0.988	0.812	0.756	0.922	1.03	0.865	
NCI-H520	0.709	0.675	0.559	0.724	0.772					0.882	0.849		0.619	0.685	0.224	0.156		0.254	0.189	
COR-L 105	1.01	1.27	0.923	1.15	1.16					0.865	0.888	1.29	1.04	0.899	0.353	0.334	0.341	0.358	0.279	
NCI-H2009	1.02	1.03	1.09	1.02	0.979					1.24	1.2	1.24	1.2	1.23	0.281	0.174	0.244	0.331	0.284	

Cell Line	relative viability ([1]; first compound 0.2 µM)	relative viability ([1]; first compound 0.6325 µM)	relative viability ([1]; first compound 2 µM)	relative viability ([1]; first compound 6.325 µM)	relative viability ([1]; first compound 20 µM)	relative viability ([2]; first compound 0.02 µM)	relative viability ([2]; first compound 0.06325 µM)	relative viability ([2]; first compound 0.6325 µM)	relative viability ([2]; first compound 2 µM)	relative viability ([3]; first compound 0.01 µM)	relative viability ([3]; first compound 0.03162 µM)	relative viability ([3]; first compound 0.1 µM)	relative viability ([3]; first compound 0.3162 µM)	relative viability ([3]; first compound 1 µM)	relative viability ([4]; first compound 0.01 µM)	relative viability ([4]; first compound 0.03162 µM)	relative viability ([4]; first compound 0.1 µM)	relative viability ([4]; first compound 0.3162 µM)	relative viability ([4]; first compound 1 µM)	relative viability ([2]; first compound 0.2 µM)
NCI-H1563	0.846	0.717	0.611	0.786	0.847					1.04	0.9	0.967	1.1	0.932	0.435	0.47	0.51	0.459	0.454	
NCI-H1703						0.118	0.129	0.136	0.139	0.353	0.287	0.341	0.393	0.33						0.133
EBC-1										0.121	0.106	0.093	0.095	0.097						
NCI-H1792	0.679	0.964	0.714	0.887	0.814		1.05	0.506	0.335						0.819	0.514		0.927	0.757	0.684
ABC-1						0.678	0.843	0.844	0.632	0.926	1.03	1.17	1.32	0.95	0.625	0.592	0.575	0.766	0.532	0.733
NCI-H1650	0.394	0.355	0.363	0.335	0.374					1.12	1.04	1.21	1.15	1.49	0.298	0.29	0.284	0.338	0.314	
NCI-H1648	0.759	0.684	0.519	0.693	0.809	0.792	0.737	0.721	0.73											
A549										0.879	0.84	0.906	0.983	0.956						
NCI-H1299										1.09	1.08	1.15	1.14	1.06						
NCI-H1623										0.868	0.832	0.821	0.933	0.803	0.499	0.634	0.487	0.607	0.498	
SK-LU-1	0.969	0.978	1.02	0.963	0.953					0.799	0.871	0.937	0.961	0.77	0.191	0.145	0.194	0.211	0.189	
SK-MES-1	0.917	0.946	0.934	0.868	0.534					0.891	0.872	0.879	1.05	0.94	0.361	0.339	0.343	0.365	0.361	
NCI-H2228	0.369	0.356	0.339	0.344	0.35					0.933	0.438	0.995	0.768	0.714	0.507	0.573	0.612	0.621	0.551	
NCI-H2023	0.218	0.255	0.194	0.211	0.0788					0.936	0.759	0.689	0.998	0.99	0.46	0.436	0.557	0.532	0.674	
HCC-44	0.595	0.684	0.653	0.671	0.609	1.04	1.03	1.07	1.12											1.08
NCI-H522	1.06	1.19	0.974	1.15	1.01	0.704	0.767	0.999	0.865						0.933	0.739	0.867	0.853	1.45	0.819
Calu-6										0.842	0.916	1.03	0.942	0.902						
COR-L23	0.209	0.2	0.212	0.204	0.204					0.994	0.926	0.956	0.962	1.06	0.459	0.474	0.474	0.581	0.485	
